Laboratory results from patent publication US12116388B2, “Amylin receptor agonists” (Novo Nordisk A/S, priority 2022, dated 2024).
Starred links: 1 amine or outer side, 2 acyl side, 3 side chain; linkers in the order of their positions; H or OH if unused. Residues, ends and D or L forms follow the SMILES beside them. *: point of attachment. C18 diacid = O=C(O)CCCCCCCCCCCCCCCCC(=O)*; γGlu = O=C(O)[C@H](CCC(=O)[*:2])N[*:1]

Columns and labels:
[1] = molecular target: T1, human calcitonin receptor (hCTR) (Homo sapiens, UniProt P30988); assay: Human calcitonin receptor (hCTR) in vitro potency assay, CRE-luciferase reporter in BHK cells; assay type: cell-based; details: BHK hCTR/CRE-Luc cells, 3 hours incubation, assay buffer with 1% ovalbumin; read-out: hCalcR potency, EC50
T1 construct: host or cells: BHK (Baby Hamster Kidney), Hollex-1 cell line
T1 sequence (P30988 25-474): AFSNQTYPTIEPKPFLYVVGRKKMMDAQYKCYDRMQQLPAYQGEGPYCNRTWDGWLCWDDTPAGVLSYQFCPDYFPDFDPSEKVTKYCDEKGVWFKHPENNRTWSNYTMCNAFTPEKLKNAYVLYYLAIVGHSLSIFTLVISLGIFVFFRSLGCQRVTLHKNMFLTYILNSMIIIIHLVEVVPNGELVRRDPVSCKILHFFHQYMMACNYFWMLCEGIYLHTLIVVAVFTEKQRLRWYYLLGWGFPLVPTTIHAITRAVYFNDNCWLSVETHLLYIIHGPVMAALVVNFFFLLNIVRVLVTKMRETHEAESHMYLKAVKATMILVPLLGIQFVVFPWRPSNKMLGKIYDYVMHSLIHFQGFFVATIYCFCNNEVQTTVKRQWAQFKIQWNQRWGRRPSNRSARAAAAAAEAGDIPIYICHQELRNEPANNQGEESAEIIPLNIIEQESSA
Method in brief: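 BHK cells stably co-expressing human calcitonin receptor and a CRE-luciferase reporter, seeded the day before, were exposed to 7-fold serial dilutions (7 concentrations, often starting near 10 nM) in DMEM/HEPES/1% ovalbumin buffer for 3 h at 37 °C. Luminescence was then read after SteadyLite Plus addition.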

[2] = molecular target: T2, human amylin receptor (hAMYR3) (Homo sapiens, UniProt O60896+P30988); assay: Human amylin receptor (hAMYR3) in vitro potency assay, CRE-luciferase reporter in BHK cells; assay type: cell-based; details: BHK hAMYR3/CRE-Luc cells, 3 hours incubation, assay buffer with 1% ovalbumin
T2 construct: host or cells: BHK (Baby Hamster Kidney), Hollex-1 cell line further transfected with RAMP3
T2 sequence (O60896 24-148, one chain of several): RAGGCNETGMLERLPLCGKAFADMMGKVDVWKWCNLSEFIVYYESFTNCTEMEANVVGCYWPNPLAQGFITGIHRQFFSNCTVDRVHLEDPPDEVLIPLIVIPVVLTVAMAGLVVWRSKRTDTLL
Method in brief: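 BHK cells stably expressing human calcitonin receptor (a) plus RAMP3 and a CRE-luciferase reporter, seeded overnight, then exposed to 7-point 7-fold dilutions (often from ~10 nM) in DMEM/HEPES buffer with 1% ovalbumin for 3 h at 37 °C. Luciferase luminescence read after SteadyLite Plus addition.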

EC50 [1] [pM] | EC50 [2] [pM] | SMILES
2.19 | 1.31 | CC[C@H](C)[C@H](NC(=O)[C@H](C)NC(=O)CNC(=O)[C@H](Cc1ccccc1)NC(=O)[C@@H]1CCCN1C(=O)[C@H](CC(=O)O)NC(=O)[C@H](CO)NC(=O)[C@H](CO)NC(=O)[C@H](Cc1c[nH]cn1)NC(=O)[C@H](Cc1c[nH]cn1)NC(=O)[C@H](CC(C)C)NC(=O)[C@H](Cc1ccccc1)NC(=O)[C@H](CCC(=O)O)NC(=O)[C@H](C)NC(=O)[C@H](CC(C)C)NC(=O)[C@H](CCCNC(=N)N)NC(=O)[C@H](CCC(N)=O)NC(=O)[C@@H](NC(=O)[C@H](CCC(N)=O)NC(=O)[C@H](C)NC(=O)[C@@H](NC(=O)[C@H](CO)NC(=O)[C@H](CC(C)C)NC(=O)[C@H](Cc1c[nH]cn1)NC(=O)[C@H](CO)NC(=O)[C@H](C)NC(=O)CC[C@H](NC(=O)CCCCCCCCCCCCCCCCC(=O)O)C(=O)O)[C@@H](C)O)[C@@H](C)O)C(=O)N1CCC[C@H]1C(=O)N[C@@H](CO)C(=O)N[C@@H](CO)C(=O)N[C@H](C(=O)N[C@@H](CC(=O)O)C(=O)N[C@H](C(=O)NCC(=O)N1CCC[C@H]1C(=O)N[C@@H](CC(N)=O)C(=O)N[C@H](C(=O)N1CCC[C@H]1C(N)=O)[C@@H](C)O)C(C)C)[C@@H](C)O [Compound 26, N^1-[(4S)-4-carboxy-4-(17-carboxyheptadecanoylamino)butanoyl]-[Ala1,Ser2,His3,Leu4,Ser5,Ala7,Gln8,Glu14,His17,Asp21,Pro22,Pro27,Asp31,Pro34,Pro37]-human amylin] ({C18 diacid-γGlu}-ASHLSTAQTQRLAEFLHHSSDPFGAIPSSTDVGPNTP-NH2)
1.78 | 2.68 | CC[C@H](C)[C@H](NC(=O)[C@H](C)NC(=O)CNC(=O)[C@H](Cc1ccccc1)NC(=O)[C@@H]1CCCN1C(=O)[C@H](CCC(=O)O)NC(=O)[C@H](CO)NC(=O)[C@H](CO)NC(=O)[C@H](Cc1c[nH]cn1)NC(=O)[C@H](Cc1c[nH]cn1)NC(=O)[C@H](CC(C)C)NC(=O)[C@H](Cc1ccccc1)NC(=O)[C@H](CCC(=O)O)NC(=O)[C@H](C)NC(=O)[C@H](CC(C)C)NC(=O)[C@H](CCCNC(=N)N)NC(=O)[C@H](CCC(N)=O)NC(=O)[C@@H](NC(=O)[C@H](CCC(N)=O)NC(=O)[C@H](C)NC(=O)[C@@H](NC(=O)[C@H](CO)NC(=O)[C@H](CC(C)C)NC(=O)[C@H](Cc1c[nH]cn1)NC(=O)[C@H](CO)NC(=O)[C@H](C)NC(=O)CC[C@H](NC(=O)CCCCCCCCCCCCCCCCC(=O)O)C(=O)O)[C@@H](C)O)[C@@H](C)O)C(=O)N1CCC[C@H]1C(=O)N[C@@H](CO)C(=O)N[C@@H](CO)C(=O)N[C@H](C(=O)N[C@@H](CCC(=O)O)C(=O)N[C@H](C(=O)NCC(=O)N1CCC[C@H]1C(=O)N[C@@H](CCC(=O)O)C(=O)N[C@H](C(=O)N1CCC[C@H]1C(N)=O)[C@@H](C)O)C(C)C)[C@@H](C)O [Compound 27, N^1-[(4S)-4-carboxy-4-(17-carboxyheptadecanoylamino)butanoyl]-[Ala1,Ser2,His3,Leu4,Ser5,Ala7,Gln8,Glu14,His17,Glu21,Pro22,Pro27,Glu31,Pro34,Glu35,Pro37]-human amylin] ({C18 diacid-γGlu}-ASHLSTAQTQRLAEFLHHSSEPFGAIPSSTEVGPETP-NH2)
1.72 | 2.06 | CC[C@H](C)[C@H](NC(=O)[C@@H]1CCCN1C(=O)CNC(=O)[C@H](Cc1ccccc1)NC(=O)[C@H](Cc1c[nH]cn1)NC(=O)[C@H](Cc1c[nH]cn1)NC(=O)[C@H](CC(C)C)NC(=O)[C@H](Cc1ccccc1)NC(=O)[C@H](CCC(=O)O)NC(=O)[C@H](C)NC(=O)[C@H](CC(C)C)NC(=O)[C@H](CCCNC(=N)N)NC(=O)[C@H](CCC(N)=O)NC(=O)[C@@H](NC(=O)[C@H](CCC(N)=O)NC(=O)[C@H](C)NC(=O)[C@@H](NC(=O)[C@H](CO)NC(=O)[C@H](CC(C)C)NC(=O)[C@H](Cc1c[nH]cn1)NC(=O)[C@H](CO)NC(=O)[C@H](C)NC(=O)CC[C@H](NC(=O)CCCCCCCCCCCCCCCCC(=O)O)C(=O)O)[C@@H](C)O)[C@@H](C)O)C(=O)N[C@@H](CC(C)C)C(=O)N1CCC[C@H]1C(=O)N1CCC[C@H]1C(=O)N[C@H](C(=O)N[C@@H](CC(=O)O)C(=O)N[C@H](C(=O)NCC(=O)N[C@@H](CO)C(=O)N[C@@H](CCC(=O)O)C(=O)N[C@H](C(=O)N1CCC[C@H]1C(N)=O)[C@@H](C)O)C(C)C)[C@@H](C)O [Compound 28, N^1-[(4S)-4-carboxy-4-(17-carboxyheptadecanoylamino)butanoyl]-[Ala1,Ser2,His3,Leu4,Ser5,Ala7,Gln8,Glu14,His17,Pro25,Pro28,Pro29,Asp31,Glu35,Pro37],des-(19-22)-human amylin] ({C18 diacid-γGlu}-ASHLSTAQTQRLAEFLHHFGPILPPTDVGSETP-NH2)
3.08 | 5.2 | CC[C@H](C)[C@H](NC(=O)[C@@H]1CCCN1C(=O)CNC(=O)[C@H](Cc1ccccc1)NC(=O)[C@H](Cc1c[nH]cn1)NC(=O)[C@H](Cc1c[nH]cn1)NC(=O)[C@H](CC(C)C)NC(=O)[C@H](Cc1ccccc1)NC(=O)[C@H](CCC(=O)O)NC(=O)[C@H](C)NC(=O)[C@H](CC(C)C)NC(=O)[C@H](CCCNC(=N)N)NC(=O)[C@H](CCC(N)=O)NC(=O)[C@@H](NC(=O)[C@H](CCC(N)=O)NC(=O)[C@H](C)NC(=O)[C@@H](NC(=O)[C@H](CO)NC(=O)[C@H](CC(C)C)NC(=O)[C@H](CCC(=O)O)NC(=O)[C@H](CO)NC(=O)[C@H](C)NC(=O)CC[C@H](NC(=O)CCCCCCCCCCCCCCCCC(=O)O)C(=O)O)[C@@H](C)O)[C@@H](C)O)C(=O)N[C@@H](CC(C)C)C(=O)N1CCC[C@H]1C(=O)N1CCC[C@H]1C(=O)N[C@H](C(=O)N[C@@H](CC(=O)O)C(=O)N[C@H](C(=O)NCC(=O)N[C@@H](CO)C(=O)N[C@@H](CCC(=O)O)C(=O)N[C@H](C(=O)N1CCC[C@H]1C(N)=O)[C@@H](C)O)C(C)C)[C@@H](C)O [Compound 29, N^1-[(4S)-4-carboxy-4-(17-carboxyheptadecanoylamino)butanoyl]-[Ala1,Ser2,Glu3,Leu4,Ser5,Ala7,Gln8,Glu14,His17,Pro25,Pro28,Pro29,Asp31,Glu35,Pro37],des-(19-22)-human amylin] ({C18 diacid-γGlu}-ASELSTAQTQRLAEFLHHFGPILPPTDVGSETP-NH2)
2.07 | 2.37 | CC[C@H](C)[C@H](NC(=O)[C@@H]1CCCN1C(=O)CNC(=O)[C@H](Cc1ccccc1)NC(=O)[C@H](Cc1c[nH]cn1)NC(=O)[C@H](Cc1c[nH]cn1)NC(=O)[C@H](CC(C)C)NC(=O)[C@H](Cc1ccccc1)NC(=O)[C@H](CCC(=O)O)NC(=O)[C@H](C)NC(=O)[C@H](CC(C)C)NC(=O)[C@H](CCCNC(=N)N)NC(=O)[C@H](CCC(N)=O)NC(=O)[C@@H](NC(=O)[C@H](CCC(N)=O)NC(=O)[C@H](C)NC(=O)[C@@H](NC(=O)[C@H](CO)NC(=O)[C@H](CC(C)C)NC(=O)[C@H](CO)NC(=O)CNC(=O)[C@H](C)NC(=O)CC[C@H](NC(=O)CC[C@H](NC(=O)CCCCCCCCCCCCCCCCC(=O)O)C(=O)O)C(=O)O)[C@@H](C)O)[C@@H](C)O)C(=O)N[C@@H](CC(C)C)C(=O)N1CCC[C@H]1C(=O)N1CCC[C@H]1C(=O)N[C@H](C(=O)N[C@@H](CC(=O)O)C(=O)N[C@H](C(=O)NCC(=O)N[C@@H](CO)C(=O)N[C@@H](CCC(=O)O)C(=O)N[C@H](C(=O)N1CCC[C@H]1C(N)=O)[C@@H](C)O)C(C)C)[C@@H](C)O [Compound 30, N^1-[(4S)-4-carboxy-4-[[(4S)-4-carboxy-4-(17-carboxyheptadecanoylamino)butanoyl]amino]butanoyl]-[Ala1,Gly2,Ser3,Leu4,Ser5,Ala7,Gln8,Glu14,His17,Pro25,Pro28,Pro29,Asp31,Glu35,Pro37],des-(19-22)-human amylin] ({C18 diacid-γGlu-γGlu}-AGSLSTAQTQRLAEFLHHFGPILPPTDVGSETP-NH2)
